# Where a SMILES comes first, the peptide text is derived from it.
# How the values were obtained:
# Assay type in all cases: cell-based
# human red blood cells = assay: Hemolytic activity determination; conditions: 2% (v/v) hRBCs, peptide 12.5-200 μg/mL, 37 °C, 1 h, absorbance 540 nm; 1% Triton X-100 = 100%; three independent experiments
# Procedure: The hemolytic activities of the peptides were determined against human red blood cells (hRBCs). Briefly, fresh hRBCs anticoagulated with sodium citrate were rinsed with 0.9% sodium chloride by centrifugation (1000× g, 5 min). Then, the cells were diluted to a final concentration of 2% (v/v) and prepared in a clear 96-well polypropylene microtiter plate. Next, the samples were mixed with a series of concentrations of the peptide (12.5, 25, 50, 100 and 200 μg/mL) and incubated at 37 °C for 1 h. After that, the samples were centrifuged (2000× g, 10 min), and the absorbances of the supernatants were measured at 540 nm to evaluate the release of hemoglobin. HRBCs treated with 1% Triton X-100 or 0.9% sodium chloride were taken as 100% and 0% hemolysis, respectively.
# [1] = test system: Acinetobacter baumannii ATCC19606; assay: MIC determination (broth microdilution); conditions: MHB, 5 × 10^5 CFU/mL, peptide 0.625 to 40 μg/mL, 37 °C, 18 h, OD 630 nm
# Procedure: (§1) The antimicrobial activities of the peptides were tested against S. aureus ATCC29213, E. faecalis ATCC29212, E. coli ATCC25922, K. pneumoniae ATCC700603, P. aeruginosa ATCC27853 and A. baumannii ATCC19606. All these strains were purchased from the China Center of Type Culture Collection (CCTCC).
# (§2) The antimicrobial activities of the peptides were determined as previously described. Briefly, the bacteria were incubated at 37 °C and 150 rpm until the log phase of growth. Next, the bacteria were diluted with Mueller-Hinton broth (MHB, Oxoid, UK) and prepared in a clear round-bottom polypropylene 96-well microtiter plate to achieve a final concentration of 5 × 10^5 colony-forming unit (CFU)/mL. Twofold serial dilutions of the peptides were added into each well with the concentrations ranging from 0.625 to 40 μg/mL. The mixed peptides and cells were cultured at 37 °C and 150 rpm for 18 h, and the optical density (OD) was measured at 630 nm. The minimum inhibitory concentration was defined as the lowest peptide concentration with no detectable bacterial growth.
# [2] = test system: Klebsiella pneumoniae ATCC700603; assay: MIC determination (broth microdilution); conditions: MHB, 5 × 10^5 CFU/mL, peptide 0.625 to 40 μg/mL, 37 °C, 18 h, OD 630 nm
# Procedure: as §1, §2
# [3] = test system: Staphylococcus aureus ATCC29213; assay: MIC determination (broth microdilution); conditions: MHB, 5 × 10^5 CFU/mL, peptide 0.625 to 40 μg/mL, 37 °C, 18 h, OD 630 nm
# Procedure: as §1, §2
# [4] = test system: Escherichia coli ATCC25922; assay: MIC determination (broth microdilution); conditions: MHB, 5 × 10^5 CFU/mL, peptide 0.625 to 40 μg/mL, 37 °C, 18 h, OD 630 nm
# Procedure: as §1, §2
# [5] = test system: Pseudomonas aeruginosa ATCC27853; assay: MIC determination (broth microdilution); conditions: MHB, 5 × 10^5 CFU/mL, peptide 0.625 to 40 μg/mL, 37 °C, 18 h, OD 630 nm
# Procedure: as §1, §2
# [6] = test system: Enterococcus faecalis ATCC29212; assay: MIC determination (broth microdilution); conditions: MHB, 5 × 10^5 CFU/mL, peptide 0.625 to 40 μg/mL, 37 °C, 18 h, OD 630 nm
# Procedure: as §1, §2
structure (smiles),measurement,setting,value
CC[C@H](C)[C@H](NC(=O)[C@H](CCCCN)NC(=O)CNC(=O)[C@H](C)NC(=O)[C@@H](NC(=O)[C@H](CCCCN)NC(=O)[C@H](CCCCN)NC(=O)[C@@H](NC(=O)[C@H](Cc1c[nH]c2ccccc12)NC(=O)[C@H](CC(=O)O)NC(=O)[C@@H](N)Cc1c[nH]c2ccccc12)[C@@H](C)CC)[C@@H](C)O)C(=O)N[C@@H](Cc1c[nH]c2ccccc12)C(=O)N[C@@H](CC(N)=O)C(=O)N[C@@H](CO)C(N)=O [Smp43(3-16)] (H-WDWIKKTAGKIWNS-NH2),HC10: the concentration of the peptide that causes 10% hemolysis of human red blood cells,human red blood cells,> 200 µg/mL
same,MIC,[1],> 40 µg/mL
same,MIC,[2],> 40 µg/mL
same,MIC,[3],> 40 µg/mL
same,MIC,[4],> 40 µg/mL
same,MIC,[5],> 40 µg/mL
same,MIC,[6],> 40 µg/mL
CC[C@H](C)[C@H](NC(=O)[C@H](CCCCN)NC(=O)CNC(=O)[C@H](C)NC(=O)[C@@H](NC(=O)[C@H](CCCCN)NC(=O)[C@H](CCCCN)NC(=O)[C@@H](NC(=O)[C@@H](N)Cc1c[nH]c2ccccc12)[C@@H](C)CC)[C@@H](C)O)C(=O)N[C@@H](Cc1c[nH]c2ccccc12)C(=O)N[C@@H](CC(N)=O)C(=O)N[C@@H](CO)C(=O)N[C@@H](CCC(=O)O)C(=O)N1CCC[C@H]1C(N)=O [Smp43(5-18)] (H-WIKKTAGKIWNSEP-NH2),HC10: the concentration of the peptide that causes 10% hemolysis of human red blood cells,human red blood cells,> 200 µg/mL
same,MIC,[1],> 40 µg/mL
same,MIC,[2],> 40 µg/mL
same,MIC,[3],> 40 µg/mL
same,MIC,[4],> 40 µg/mL
same,MIC,[5],> 40 µg/mL
same,MIC,[6],> 40 µg/mL
CC[C@H](C)[C@H](NC(=O)[C@H](CCCCN)NC(=O)CNC(=O)[C@H](C)NC(=O)[C@@H](NC(=O)[C@H](CCCCN)NC(=O)[C@@H](N)CCCCN)[C@@H](C)O)C(=O)N[C@@H](Cc1c[nH]c2ccccc12)C(=O)N[C@@H](CC(N)=O)C(=O)N[C@@H](CO)C(=O)N[C@@H](CCC(=O)O)C(=O)N1CCC[C@H]1C(=O)N[C@H](C(=O)N[C@@H](CCCCN)C(N)=O)C(C)C [Smp43(7-20)] (H-KKTAGKIWNSEPVK-NH2),HC10: the concentration of the peptide that causes 10% hemolysis of human red blood cells,human red blood cells,> 200 µg/mL
same,MIC,[1],> 40 µg/mL
same,MIC,[2],> 40 µg/mL
same,MIC,[3],> 40 µg/mL
same,MIC,[4],> 40 µg/mL
same,MIC,[5],> 40 µg/mL
same,MIC,[6],> 40 µg/mL
CC[C@H](C)[C@H](NC(=O)[C@H](CCCCN)NC(=O)CNC(=O)[C@H](C)NC(=O)[C@@H](N)[C@@H](C)O)C(=O)N[C@@H](Cc1c[nH]c2ccccc12)C(=O)N[C@@H](CC(N)=O)C(=O)N[C@@H](CO)C(=O)N[C@@H](CCC(=O)O)C(=O)N1CCC[C@H]1C(=O)N[C@H](C(=O)N[C@@H](CCCCN)C(=O)N[C@@H](C)C(=O)N[C@@H](CC(C)C)C(N)=O)C(C)C [Smp43(9-22)] (H-TAGKIWNSEPVKAL-NH2),HC10: the concentration of the peptide that causes 10% hemolysis of human red blood cells,human red blood cells,> 200 µg/mL
same,MIC,[1],> 40 µg/mL
same,MIC,[2],> 40 µg/mL
same,MIC,[3],> 40 µg/mL
same,MIC,[4],> 40 µg/mL
same,MIC,[5],> 40 µg/mL
same,MIC,[6],> 40 µg/mL
CC[C@H](C)[C@H](NC(=O)[C@H](CCCCN)NC(=O)CN)C(=O)N[C@@H](Cc1c[nH]c2ccccc12)C(=O)N[C@@H](CC(N)=O)C(=O)N[C@@H](CO)C(=O)N[C@@H](CCC(=O)O)C(=O)N1CCC[C@H]1C(=O)N[C@H](C(=O)N[C@@H](CCCCN)C(=O)N[C@@H](C)C(=O)N[C@@H](CC(C)C)C(=O)N[C@@H](CCCCN)C(=O)N[C@@H](CO)C(N)=O)C(C)C [Smp43(11-24)] (H-GKIWNSEPVKALKS-NH2),HC10: the concentration of the peptide that causes 10% hemolysis of human red blood cells,human red blood cells,> 200 µg/mL
same,MIC,[1],> 40 µg/mL
same,MIC,[2],> 40 µg/mL
same,MIC,[3],> 40 µg/mL
same,MIC,[4],> 40 µg/mL
same,MIC,[5],> 40 µg/mL
same,MIC,[6],> 40 µg/mL
CC[C@H](C)[C@H](N)C(=O)N[C@@H](Cc1c[nH]c2ccccc12)C(=O)N[C@@H](CC(N)=O)C(=O)N[C@@H](CO)C(=O)N[C@@H](CCC(=O)O)C(=O)N1CCC[C@H]1C(=O)N[C@H](C(=O)N[C@@H](CCCCN)C(=O)N[C@@H](C)C(=O)N[C@@H](CC(C)C)C(=O)N[C@@H](CCCCN)C(=O)N[C@@H](CO)C(=O)N[C@@H](CCC(N)=O)C(=O)N[C@@H](C)C(N)=O)C(C)C [Smp43(13-26)] (H-IWNSEPVKALKSQA-NH2),HC10: the concentration of the peptide that causes 10% hemolysis of human red blood cells,human red blood cells,> 200 µg/mL
same,MIC,[1],> 40 µg/mL
same,MIC,[2],> 40 µg/mL
same,MIC,[3],> 40 µg/mL
same,MIC,[4],> 40 µg/mL
same,MIC,[5],> 40 µg/mL
same,MIC,[6],> 40 µg/mL
CC(C)C[C@H](NC(=O)[C@H](C)NC(=O)[C@H](CCC(N)=O)NC(=O)[C@H](CO)NC(=O)[C@H](CCCCN)NC(=O)[C@H](CC(C)C)NC(=O)[C@H](C)NC(=O)[C@H](CCCCN)NC(=O)[C@@H](NC(=O)[C@@H]1CCCN1C(=O)[C@H](CCC(=O)O)NC(=O)[C@H](CO)NC(=O)[C@@H](N)CC(N)=O)C(C)C)C(=O)N[C@@H](CC(N)=O)C(N)=O [Smp43(15-28)] (H-NSEPVKALKSQALN-NH2),HC10: the concentration of the peptide that causes 10% hemolysis of human red blood cells,human red blood cells,> 200 µg/mL
same,MIC,[1],> 40 µg/mL
same,MIC,[2],> 40 µg/mL
same,MIC,[3],> 40 µg/mL
same,MIC,[4],> 40 µg/mL
same,MIC,[5],> 40 µg/mL
same,MIC,[6],> 40 µg/mL
CC(C)C[C@H](NC(=O)[C@H](C)NC(=O)[C@H](CCC(N)=O)NC(=O)[C@H](CO)NC(=O)[C@H](CCCCN)NC(=O)[C@H](CC(C)C)NC(=O)[C@H](C)NC(=O)[C@H](CCCCN)NC(=O)[C@@H](NC(=O)[C@@H]1CCCN1C(=O)[C@@H](N)CCC(=O)O)C(C)C)C(=O)N[C@@H](CC(N)=O)C(=O)N[C@@H](C)C(=O)N[C@@H](C)C(N)=O [Smp43(17-30)] (H-EPVKALKSQALNAA-NH2),HC10: the concentration of the peptide that causes 10% hemolysis of human red blood cells,human red blood cells,> 200 µg/mL
same,MIC,[1],> 40 µg/mL
same,MIC,[2],> 40 µg/mL
same,MIC,[3],> 40 µg/mL
same,MIC,[4],> 40 µg/mL
same,MIC,[5],> 40 µg/mL
same,MIC,[6],> 40 µg/mL
CC(C)C[C@H](NC(=O)[C@H](C)NC(=O)[C@H](CCC(N)=O)NC(=O)[C@H](CO)NC(=O)[C@H](CCCCN)NC(=O)[C@H](CC(C)C)NC(=O)[C@H](C)NC(=O)[C@H](CCCCN)NC(=O)[C@@H](N)C(C)C)C(=O)N[C@@H](CC(N)=O)C(=O)N[C@@H](C)C(=O)N[C@@H](C)C(=O)N[C@@H](CCCCN)C(=O)N[C@@H](CC(N)=O)C(N)=O [Smp43(19-32)] (H-VKALKSQALNAAKN-NH2),HC10: the concentration of the peptide that causes 10% hemolysis of human red blood cells,human red blood cells,> 200 µg/mL
same,MIC,[1],> 40 µg/mL
same,MIC,[2],> 40 µg/mL
same,MIC,[3],> 40 µg/mL
same,MIC,[4],> 40 µg/mL
same,MIC,[5],> 40 µg/mL
same,MIC,[6],> 40 µg/mL
CC(C)C[C@H](NC(=O)[C@H](C)N)C(=O)N[C@@H](CCCCN)C(=O)N[C@@H](CO)C(=O)N[C@@H](CCC(N)=O)C(=O)N[C@@H](C)C(=O)N[C@@H](CC(C)C)C(=O)N[C@@H](CC(N)=O)C(=O)N[C@@H](C)C(=O)N[C@@H](C)C(=O)N[C@@H](CCCCN)C(=O)N[C@@H](CC(N)=O)C(=O)N[C@@H](Cc1ccccc1)C(=O)N[C@H](C(N)=O)C(C)C [Smp43(21-34)] (H-ALKSQALNAAKNFV-NH2),HC10: the concentration of the peptide that causes 10% hemolysis of human red blood cells,human red blood cells,> 200 µg/mL
same,MIC,[1],> 40 µg/mL
same,MIC,[2],> 40 µg/mL
same,MIC,[3],> 40 µg/mL
same,MIC,[4],> 40 µg/mL
same,MIC,[5],> 40 µg/mL
same,MIC,[6],> 40 µg/mL
CC(C)C[C@H](NC(=O)[C@H](C)NC(=O)[C@H](CCC(N)=O)NC(=O)[C@H](CO)NC(=O)[C@@H](N)CCCCN)C(=O)N[C@@H](CC(N)=O)C(=O)N[C@@H](C)C(=O)N[C@@H](C)C(=O)N[C@@H](CCCCN)C(=O)N[C@@H](CC(N)=O)C(=O)N[C@@H](Cc1ccccc1)C(=O)N[C@H](C(=O)N[C@@H](C)C(=O)N[C@@H](CCC(=O)O)C(N)=O)C(C)C [Smp43(23-36)] (H-KSQALNAAKNFVAE-NH2),HC10: the concentration of the peptide that causes 10% hemolysis of human red blood cells,human red blood cells,> 200 µg/mL
same,MIC,[1],> 40 µg/mL
same,MIC,[2],> 40 µg/mL
same,MIC,[3],> 40 µg/mL
same,MIC,[4],> 40 µg/mL
same,MIC,[5],> 40 µg/mL
same,MIC,[6],> 40 µg/mL

# Reference: publication PMC8150835, “An Smp43-Derived Short-Chain α-Helical Peptide Displays a Unique Sequence and Possesses Antimicrobial Activity against Both Gram-Positive and Gram-Negative Bacteria” (Toxins, 2021)
